The record followed here is PubChem BioAssay (NCI).

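Method: 48-hour compound exposure of cells in 96-well plates, five concentrations, linear interpolation of endpoints. At the TGI there is no net growth.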 A value given as a limit tells only on which side of the number the result lay.

Test systems include SK-MEL-2 melanoma; MDA-MB-435; HT29 colon; OVCAR-8 ovarian; HOP-92 NSCLC; SR leukemia; SNB-75 CNS; SF-295 CNS; UACC-62 melanoma; RPMI-8226 leukemia; SK-MEL-28 melanoma; HCT-116 colon; SF-268 CNS; BT-549 breast; RXF 393 renal; HOP-62 NSCLC; SN12C renal; OVCAR-5 ovarian; NCI-H23 lung.
Holding throughout (test): inhibition of tumour cell growth, NCI panel, 48 h

With `CN(C)CCCNC(=O)c1cc(NS(=O)(=O)c2ccc3c(c2)C(=O)c2ccccc2C3=O)cn1C`, the TGI with SK-MEL-2 melanoma was greater than 100 µM; in the test on MDA-MB-435, 59 µM; in the test on HT29 colon it was 81.4 µM; in the test with OVCAR-8 ovarian, greater than 100 µM; with HOP-92 NSCLC, greater than 100 µM; in the test with SR leukemia, 85.2 µM. In addition, the TGI in the test with SNB-75 CNS is 56 µM; in the test on SF-295 CNS, 94.9 µM; with UACC-62 melanoma, 41.4 µM; in the test on RPMI-8226 leukemia it was 53.2 µM; with SK-MEL-28 melanoma, 50.8 µM; in the test with HCT-116 colon, greater than 100 µM. The TGI is 72.5 µM in the test on SF-268 CNS; 53.9 µM with BT-549 breast; 57.4 µM with RXF 393 renal; greater than 100 µM with HOP-62 NSCLC; 90.7 µM in the test on SN12C renal; greater than 100 µM with OVCAR-5 ovarian. In the test on NCI-H23 lung, this molecule yielded a TGI of 64.7 µM.
Turning to `COc1cc2cc3c4c(cc(OC)c(OC)c4c2cc1OC)CCN3C`, the TGI in the test on SK-MEL-2 melanoma is 30 µM; in the test with MDA-MB-435, greater than 23.4 µM; in the test on HT29 colon, greater than 37.5 µM; in the test with OVCAR-8 ovarian, greater than 50 µM; in the test with HOP-92 NSCLC, greater than 50 µM; in the test with SR leukemia, greater than 10.8 µM. Further, the TGI with SNB-75 CNS is 27.8 µM; with SF-295 CNS, greater than 31.8 µM; in the test with UACC-62 melanoma it was 14.3 µM; in the test with RPMI-8226 leukemia it was 12.9 µM; in the test on SK-MEL-28 melanoma, greater than 50 µM; with HCT-116 colon, greater than 25.7 µM. In addition, the TGI with SF-268 CNS is greater than 50 µM; with BT-549 breast it was greater than 23.6 µM; in the test on RXF 393 renal it was 12.3 µM; in the test with HOP-62 NSCLC it was greater than 50 µM; with SN12C renal it was greater than 50 µM; with OVCAR-5 ovarian, 49 µM. The same molecule came in with a TGI in the test on NCI-H23 lung greater than 50 µM.
For the molecule `CCS(=O)c1c2cc(OC)ccc2nc2ccc(OC)cc12` (stereo unspecified), the TGI is 35.3 µM with SK-MEL-2 melanoma; 26.4 µM with MDA-MB-435; 10 µM with HT29 colon; 15.5 µM in the test with OVCAR-8 ovarian; greater than 53.1 µM with HOP-92 NSCLC; greater than 25 µM in the test on SR leukemia. Further, the TGI stood at 38.2 µM in the test on SNB-75 CNS; 63.4 µM in the test with SF-295 CNS; 33.4 µM in the test with UACC-62 melanoma; 16.5 µM with RPMI-8226 leukemia; 23.4 µM in the test on SK-MEL-28 melanoma; 7.52 µM in the test with HCT-116 colon. The TGI is greater than 62 µM in the test with SF-268 CNS; 31.9 µM in the test on BT-549 breast; 17.2 µM with RXF 393 renal; 51.1 µM in the test with HOP-62 NSCLC; 8.99 µM in the test on SN12C renal; 41.7 µM with OVCAR-5 ovarian. For the same molecule, the TGI in the test with NCI-H23 lung is 19.9 µM.
`COc1ccc(CNc2nc(NCc3ccc(OC)cc3)nc(NC3CCCC3)n2)cc1`: the TGI was greater than 100 µM with SK-MEL-2 melanoma; 4.95 µM in the test with MDA-MB-435; 13.6 µM in the test on HT29 colon; 20 µM in the test on OVCAR-8 ovarian; greater than 100 µM in the test on HOP-92 NSCLC; greater than 100 µM with SR leukemia. The TGI in the test with SNB-75 CNS is greater than 100 µM; in the test with SF-295 CNS, greater than 31.5 µM; in the test on UACC-62 melanoma it was greater than 59.6 µM; in the test on RPMI-8226 leukemia, greater than 30.4 µM; in the test on SK-MEL-28 melanoma, greater than 100 µM; in the test with HCT-116 colon, 10.1 µM. Also, the TGI in the test with SF-268 CNS is greater than 100 µM; in the test on BT-549 breast, greater than 31.8 µM; with RXF 393 renal, 3.61 µM; with HOP-62 NSCLC, greater than 100 µM; with SN12C renal, greater than 100 µM; with OVCAR-5 ovarian, greater than 44.7 µM. In the test with NCI-H23 lung, the TGI was greater than 22.2 µM.
As for `CCOC(=O)OC1C(Br)C2CCC1(C)C2(C)C` (stereo unspecified), the TGI was 23.6 µM in the test on MDA-MB-435; 18.6 µM with HT29 colon; 31.7 µM in the test with OVCAR-8 ovarian; 27.6 µM in the test with HOP-92 NSCLC; 5.83 µM with SR leukemia; 24.6 µM in the test with SNB-75 CNS. In addition, the TGI with SF-295 CNS was 29.5 µM; with UACC-62 melanoma, 32.1 µM; with RPMI-8226 leukemia, 20.7 µM; with SK-MEL-28 melanoma it was 29.3 µM; in the test with HCT-116 colon it was 20.9 µM; in the test on SF-268 CNS it was 29.6 µM. Moreover, the TGI was found to be 31.3 µM in the test on BT-549 breast; 25.1 µM in the test on RXF 393 renal; 31.2 µM in the test on HOP-62 NSCLC; 28.1 µM with SN12C renal; 31.7 µM in the test on OVCAR-5 ovarian; 31.9 µM in the test on NCI-H23 lung.
`CN(/N=C/c1ccccn1)C1=NCCCN1`: the TGI in the test with SK-MEL-2 melanoma, in the test on MDA-MB-435, in the test with HT29 colon, in the test with OVCAR-8 ovarian, with HOP-92 NSCLC and in the test with SR leukemia was greater than 100 µM in each case. Moreover, the TGI in the test with SNB-75 CNS, in the test on SF-295 CNS, with UACC-62 melanoma, in the test on RPMI-8226 leukemia, with SK-MEL-28 melanoma and with HCT-116 colon was greater than 100 µM in each case. Also, the TGI in the test on SF-268 CNS, with BT-549 breast, in the test on RXF 393 renal, in the test with HOP-62 NSCLC, in the test on OVCAR-5 ovarian and in the test with NCI-H23 lung was greater than 100 µM each time.
Regarding `O=C1OCC(c2ccc(Cl)cc2)=C1Cl`, the TGI was 64.1 µM in the test with SK-MEL-2 melanoma; greater than 100 µM with MDA-MB-435; greater than 100 µM in the test with HT29 colon; 73.6 µM in the test on OVCAR-8 ovarian; 58.9 µM in the test with HOP-92 NSCLC; 39.2 µM in the test with SR leukemia. Moreover, the TGI was greater than 100 µM in the test on SNB-75 CNS; greater than 100 µM in the test with SF-295 CNS; 45.9 µM with UACC-62 melanoma; 86.2 µM with RPMI-8226 leukemia; greater than 100 µM with SK-MEL-28 melanoma; 28.3 µM in the test with HCT-116 colon. The TGI in the test on SF-268 CNS was found to be 70 µM; in the test with BT-549 breast it was 53.9 µM; with RXF 393 renal it was 54.1 µM; in the test on HOP-62 NSCLC, 56 µM; in the test with SN12C renal, 80.4 µM; with OVCAR-5 ovarian it was 44.4 µM. In the test with NCI-H23 lung, this molecule displayed a TGI of 54.6 µM.
